According to article PMC9971447 (Asian Pacific Journal of Cancer Prevention : APJCP, 2022):
Where two headings read alike, the source gives them in different places.

Columns and labels:
SW620 [1] = conditions: read-out: IC50 value in SW620 cells; ref Mamdooh et al., 2019; cited from earlier work
[2] = system: RAW 264.7 mouse macrophage cell line (nitric oxide synthase readout); experiment: LPS-triggered NO; type: cell-based; conditions: for antiinflammation potency compared with indomethacin: LPS-triggered inflammation in RAW macrophages, in words
HCT116 = experiment: SRB antiproliferation assay, HCT116 colorectal cancer cells; type: cell-based
SW620 [3] = experiment: SRB antiproliferation assay, SW620 colorectal cancer cells; type: cell-based; conditions: read-out: Cytotoxicity (as of %Control) IC50 value, SW620, 72 h incubations, mean ± SD, n = 3
A375.2S cell line = conditions: read-out: antiproliferative IC50, A375.2S cell line; ref AlKhalil et al., 2020; cited from earlier work
T47D [4] = conditions: read-out: antiproliferative IC50, T47D cell line; ref AlKhalil et al., 2020; cited from earlier work
MCF7 = experiment: SRB antiproliferation assay, MCF7 breast cancer cells; type: cell-based
SW480 = experiment: SRB antiproliferation assay, SW480 colorectal cancer cells; type: cell-based
PANC1 = experiment: SRB antiproliferation assay, PANC1 pancreatic cells; type: cell-based
T47D [5] = experiment: SRB antiproliferation assay, T47D breast cancer cells; type: cell-based
[6] = system: colorectal cancer cell lines; conditions: ref Mamdooh et al., 2019; cited from earlier work
CACO2 = experiment: SRB antiproliferation assay, CACO2 colorectal cancer cells; conditions: read-out: Cytotoxicity (as of %Control) IC50 value, CACO2, 72 h incubations, mean ± SD, n = 3
HT29 = experiment: SRB antiproliferation assay, HT29 colorectal cancer cells; type: cell-based; conditions: read-out: Cytotoxicity (as of %Control) IC50 value, HT29, 72 h incubations, mean ± SD, n = 3
[7] = Mus musculus, RAW264.7, 24 h, read-out: NOS- IC50 value, LPS 20 μg/mL, RAW264.7, 24h incubations, mean ± SD, n = 3
[8] = read-out: NOS- IC50 value, LPS 20 μg/mL, RAW264.7, 24h incubations, mean ± SD, n = 3
[9] = Homo sapiens, MCF7, 72 h, read-out: Cytotoxicity (as of %Control) IC50 value, MCF7, SRB, 72 h incubations, mean ± SD, n = 3
[10] = Homo sapiens, SW480, 72 h, read-out: Cytotoxicity (as of %Control) IC50 value, SW480, SRB, 72 h incubations, mean ± SD, n = 3
[11] = Homo sapiens, PANC-1, 72 h, read-out: Cytotoxicity (as of %Control) IC50 value, PANC 1, SRB, 72 h incubations, mean ± SD, n = 3
[12] = read-out: Cytotoxicity (as of %Control) IC50 value, T47D, SRB, 72 h incubations, mean ± SD, n = 3
[13] = read-out: Cytotoxicity (as of %Control) IC50 value, MCF7, SRB, 72 h incubations, mean ± SD, n = 3
[14] = read-out: Cytotoxicity (as of %Control) IC50 value, SW480, SRB, 72 h incubations, mean ± SD, n = 3
[15] = Homo sapiens, T47D, 72 h, read-out: Cytotoxicity (as of %Control) IC50 value, T47D, SRB, 72 h incubations, mean ± SD, n = 3

CC(C)c1c(C(=O)Nc2ccccc2)c(-c2ccccc2)c(-c2ccc(F)cc2)n1CC[C@@H](O)C[C@@H](O)CC(=O)O [Atorvastatin]
IC50 (SW620 [1]): 0.0018 µM | antiinflammation potency compared with indomethacin [2]: substantially more potent | IC50 [2, 7]: 42 µM | IC50 [2, 8]: 42.8 ± 7.17 µM | IC50 (HCT116; read-out: Cytotoxicity (as of %Control) IC50 value, HCT116, SRB, 72 h incubations, mean ± SD, n = 3): < 50 µM | IC50 (SW620 [3]): < 50 µM | IC50 (A375.2S cell line): 0.0156 µM | IC50 (T47D [4]): 34.6 µM

COCc1c(C(C)C)nc(C(C)C)c(/C=C/[C@@H](O)C[C@@H](O)CC(=O)O)c1-c1ccc(F)cc1 [Cerivastatin]
IC50 (MCF7; [9]): < 50 µM | NOS- IC50 value ([2]; LPS 20 μg/mL, RAW264.7, 24h incubations, mean ± SD, n = 3): lack and noninhibitory | IC50 (SW480; [10]): 6 µM | IC50 (PANC1; [11]): < 50 µM | IC50 (T47D [5]; [12]): < 50 µM | IC50 (HCT116; Homo sapiens, HCT-116, 72 h, read-out: Cytotoxicity (as of %Control) IC50 value, HCT116, SRB, 72 h incubations, mean ± SD, n = 3): 2.9 µM

COc1cccc2c1C(=O)c1c(O)c3c(c(O)c1C2=O)C[C@@](O)(C(=O)CO)C[C@@H]3O[C@H]1C[C@H](N)[C@H](O)[C@H](C)O1 [Doxorubicin]
activity against CRC cell lines (in words) [6]: nanomolar

CC(C)n1c(/C=C/C(O)CC(O)CC(=O)O)c(-c2ccc(F)cc2)c2ccccc21 (stereo not drawn) [Fluvastatin]
IC50 (MCF7; [13]): > 50 µM | antiinflammation potency compared with indomethacin [2]: equipotency to indomethacin | IC50 [2, 7]: 110 ± 20.6 µM | IC50 (PANC1; [11]): > 50 µM | IC50 (T47D [5]; [12]): > 50 µM

COc1ccc2c(c1)c(CC(=O)O)c(C)n2C(=O)c1ccc(Cl)cc1 [Indomethacin]
IC50 [2, 7]: 87 µM | IC50 [2, 8]: 86.5 ± 10.5 µM

CC[C@H](C)C(=O)O[C@H]1C[C@@H](C)C=C2C=C[C@H](C)[C@H](CC[C@@H]3C[C@@H](O)CC(=O)O3)[C@H]21 [Lovastatin]
antiinflammation potency compared with indomethacin [2]: substantially more potent | IC50 [2, 7]: 42 µM | IC50 [2, 8]: 41.6 ± 4.34 µM | IC50 (CACO2): > 100 µM

CC[C@H](C)C(=O)O[C@H]1CCC=C2C=C[C@H](C)[C@H](CC[C@@H]3C[C@@H](O)CC(=O)O3)[C@H]21 [Mevastatin]
IC50 (MCF7; [13]): > 50 µM | antiinflammation potency compared with indomethacin [2]: inferior antiinflammation potency to indomethacin | IC50 [2, 7]: 142 ± 17.2 µM | IC50 (SW480; [10]): < 50 µM | IC50 (SW480; [14]): 36 µM | IC50 (PANC1; [11]): > 50 µM | IC50 (T47D [5]; [15]): > 50 µM

O=C(O)C[C@H](O)C[C@H](O)/C=C/c1c(C2CC2)nc2ccccc2c1-c1ccc(F)cc1 [Pitavastatin]
IC50 (MCF7; [9]): > 50 µM | antiinflammation potency compared with indomethacin [2]: equipotency to indomethacin | IC50 [2, 7]: 98.7 ± 1.87 µM | IC50 (PANC1; read-out: Cytotoxicity (as of %Control) IC50 value, PANC 1, SRB, 72 h incubations, mean ± SD, n = 3): > 50 µM | IC50 (T47D [5]; [12]): > 50 µM

CC[C@H](C)C(=O)O[C@H]1C[C@H](O)C=C2C=C[C@H](C)[C@H](CC[C@@H](O)C[C@@H](O)CC(=O)O)[C@H]21 [Pravastatin]
antiinflammation potency compared with indomethacin [2]: inferior antiinflammation potency to indomethacin | IC50 [2, 7]: 204 ± 14.1 µM | IC50 (PANC1; [11]): > 50 µM | IC50 (HT29): < 50 µM

CC(C)c1nc(N(C)S(C)(=O)=O)nc(-c2ccc(F)cc2)c1/C=C/[C@@H](O)C[C@@H](O)CC(=O)O [Rosuvastatin]
IC50 (MCF7; [13]): 1.5 µM | antiinflammation potency compared with indomethacin [2]: equipotency to indomethacin | IC50 [2, 7]: 74.2 ± 13.1 µM | IC50 (SW480; [14]): 23 µM | IC50 (PANC1; [11]): > 50 µM | IC50 (T47D [5]; [15]): > 50 µM | IC50 (SW620 [3]): 15 µM

CCC(C)(C)C(=O)O[C@H]1C[C@@H](C)C=C2C=C[C@H](C)[C@H](CC[C@@H]3C[C@@H](O)CC(=O)O3)[C@H]21 [Simvastatin]
antiinflammation potency compared with indomethacin [2]: substantially more potent | IC50 [2, 7]: 42 µM | IC50 [2, 8]: 42.5 ± 6.41 µM

O=C(O)c1cn(C2CC2)c2cc(N3CCNCC3)c(F)cc2c1=O [ciprofloxacin]
activity against CRC cell lines (in words) [6]: did not show any activity

CO/N=C1\CN(c2nc3c(cc2F)c(=O)c(C(=O)O)cn3C2CC2)CC1CN (stereo not drawn) [gemifloxacin]
activity against CRC cell lines (in words) [6]: active
